According to patent US12440451B2, “Compositions and methods using an epigenetic inhibitor” (DANA-FARBER CANCER INSTITUTE, INC., priority 2017, dated 2025):

Key:
OT-I+ CD8+ T cells = assay: APC-free T cell activation with anti-CD3 and anti-CD28 antibodies, flow cytometry; format: cell-based, mouse; settings: anti-CD3 and anti-CD28 or BMDC+SIINFEKL activation; 7 days; relative to DMSO
Description: It was important to determine whether the observed effect of RGFP966 on CD8^+ T cells post-activation was due to the drug acting on T cells, on the antigen-presenting cells, or both. To do so, the effect of RGFP966 treatment on CD8^+ T cells activated was compared in parallel using either antigen-pulsed BMDCs or antibodies against CD3 and CD28. The latter method of activating T cells is free of APCs and allowed determination of whether the effect of RGFP966 required the presence of APCs.
96-well tissue culture plates were coated with 10 μg/ml α-CD3 antibodies overnight at 4° C., then washed with PBS prior to addition of OT-I^+ CD8^+ T cells (2×10^5/well) and α-CD28 antibody (2 μg/ml) (labeled as anti-CD3 and anti-CD28). OT-I^+ CD8^+ T cells from the same batch of cells were also activated in parallel on antigen-loaded BMDCs (labeled as BMDC+SIINFEKL (SEQ ID NO: 1)) were prepared as described above. T cells were activated for 7 days, with media changes on days 3 and 5, then collected for flow cytometry phenotype analysis.

B16-Ova cells = assay: in vitro 51Cr release cytotoxicity assay of activated OT-I+ CD8+ T cells against target cells; format: cell-based, mouse; settings: for specific lysis of cells expressing target antigen: 4 hours co-incubation, FIG. 4A
Method: In order to functionally assess the phenotype of OT-I^+ CD8^+ T cells activated in the presence of RGFP966, the ability of the activated T cells to kill B16 melanoma tumor cell targets expressing the cognate SIINFEKL (SEQ ID NO: 1) antigen of the OT-I TCR was assayed. The B16-Ova cells were engineered to express chicken ovalbumin in their cytosol, and express SIINFEKL (SEQ ID NO: 1) on Kb MHC I molecules when treated with IFN-γ. In preparation for the cytotoxicity assay, B16-Ova cells were treated with 10 ng/ml IFN-γ for 48 hours prior to harvest and loading with ^51Cr radionuclide. After radiolabeling, B16-Ova cells were seeded into 96-well plates (5×10^3/well) and allowed to adhere for 1 hour prior to addition of CD8^+ effector cells. OT-I^+ CD8^+ T cells were activated as described above using SIINFEKL-pulsed BMDCs in the presence of 10 μM, 1 μM, or 0 μM RGFP966. After 7 days of activation, T cells were harvested, washed to remove the drug, and counted. OT-I^+ CD8^+ effector cells were added to the assay plates containing B16-Ova target cells at the indicated ratios: there was no drug present during the cytotoxicity assay. Specific killing of targets was assessed by measurement of 51Cr release into the culture supernatant 4 hours after co-culture. To verify that genetic ablation of HDAC3 functionally recapitulated the augmented cytotoxic effector phenotype of HDAC3 inhibition using RGFP966, HDAC3-KO T cells were generated from OT-I^+ CD8^+ Cas9^+ T cells as described above, and compared with RGFP966-treated T cells from the same batch in an in vitro cytotoxicity assay.

Nc1cc(F)ccc1NC(=O)/C=C/c1cnn(C/C=C/c2ccccc2)c1 [RGFP966]
T cell effector phenotype (CD25, granzyme B, IFN-γ, TNF-α, IL-2) (OT-I+ CD8+ T cells): augmented their T cell effector phenotype across both methods of T cell activation
killing of cognate antigen-expressing target cells (B16-Ova cells; T cells activated in the presence of the drug, dose-dependent): kill cognate antigen-expressing target cells more effectively than untreated cells
cytotoxicity compared with control treatment (B16-Ova cells; T cells activated with 1 μM): modest but non-significant increase in cytotoxicity
specific lysis of cells expressing target antigen (B16-Ova cells; T cells activated with 1 μM): about 45%
specific lysis of cells expressing target antigen (B16-Ova cells; T cells activated with 10 μM): ~70%
